The values below come from paper PMC7775144, “Enzyme Inhibitory Kinetics and Molecular Docking Studies of Halo-Substituted Mixed Ester/Amide-Based Derivatives as Jack Bean Urease Inhibitors” (BioMed Research International, 2020).

Entries after “also recorded” stand apart in the source; their conditions may differ. Like-named read-outs stand apart in the source and are kept apart here.

In data set [1] the target is T1, jack bean urease (Canavalia ensiformis, UniProt P07374). The data set can be described thus: biochemical. In kind it is biochemical. Here is the method: The inhibitory effects on urease activity were done based on the Weatherburn method, using the indophenol scheme by determining the amount of ammonia produced. Briefly, 20 μL of jack bean urease enzyme (0.135 units) and 20 μL of the tested compounds were taken in 50 μL buffer and were incubated for 30 min. Temperature was kept at 37°C in a 96-well plate reader. The buffer solution was made by 0.01 molar K2HPO4/KH2PO4, 1 mM EDTA, 100 mM urea, and 0.01 M LiCl; pH was maintained at 7.0. Then, 50 μL of phenol reagent (1% w/v phenol and 0.005% w/v sodium nitroprusside) was added in 50 μL of alkali reagent in each well. The alkali reagent was prepared by 0.5% w/v NaOH and 0.1% NaOCl. Absorbance was measured at 625 nm using OPTIMax, a tunable microplate reader, after 10 min interval in a triplicate manner. The thiourea was used as a standard jack bean urease inhibitor. The data has been analyzed using software, GraphPad Prism, and statistical analysis (SD) was performed by using SigmaPlot software to get SD values of the bioassay results.

In data set [2] the target is T1, jack bean urease. The data set can be described thus: Kinetic study of jack bean urease inhibition (Lineweaver-Burk plots). The data set is classed as biochemical. Also noted: 1/Vmax: unit not given here. Here is the method: The derivative 4b was selected on the basis of its high activity for the determination of its kinetic mechanism on jack bean urease. The enzyme inhibition EI and enzyme-substrate inhibition ESI constants for compound 4b have been determined. The inhibitor concentration used in the kinetic experiments was 0.00, 0.0008, and 0.0016 μM while concentration of substrate was 0.0, 0.1, 0.2, 0.3, and 0.4 mM. The kinetic mechanism was determined by plotting of 1/V versus 1/[S] in the presence of inhibitor concentrations which gave a series of straight lines as shown in Figure 3. […] The EI dissociation constant (Ki) and ESI dissociation constant (Ki′) for compound 4b have also been determined from Lineweaver-Burk plots.

In data set [3] the target is T1, jack bean urease. To be noted: jack bean urease inhibitors already reported; ref [35], [36]; cited from earlier work.
Setting [4] is: n = 3, 30 min, 37°C, pH 7.0, 100 mM urea, read-out: Urease (jack bean) inhibition IC50 ± SD.

T1 sequence (P07374 whole entry, looked up): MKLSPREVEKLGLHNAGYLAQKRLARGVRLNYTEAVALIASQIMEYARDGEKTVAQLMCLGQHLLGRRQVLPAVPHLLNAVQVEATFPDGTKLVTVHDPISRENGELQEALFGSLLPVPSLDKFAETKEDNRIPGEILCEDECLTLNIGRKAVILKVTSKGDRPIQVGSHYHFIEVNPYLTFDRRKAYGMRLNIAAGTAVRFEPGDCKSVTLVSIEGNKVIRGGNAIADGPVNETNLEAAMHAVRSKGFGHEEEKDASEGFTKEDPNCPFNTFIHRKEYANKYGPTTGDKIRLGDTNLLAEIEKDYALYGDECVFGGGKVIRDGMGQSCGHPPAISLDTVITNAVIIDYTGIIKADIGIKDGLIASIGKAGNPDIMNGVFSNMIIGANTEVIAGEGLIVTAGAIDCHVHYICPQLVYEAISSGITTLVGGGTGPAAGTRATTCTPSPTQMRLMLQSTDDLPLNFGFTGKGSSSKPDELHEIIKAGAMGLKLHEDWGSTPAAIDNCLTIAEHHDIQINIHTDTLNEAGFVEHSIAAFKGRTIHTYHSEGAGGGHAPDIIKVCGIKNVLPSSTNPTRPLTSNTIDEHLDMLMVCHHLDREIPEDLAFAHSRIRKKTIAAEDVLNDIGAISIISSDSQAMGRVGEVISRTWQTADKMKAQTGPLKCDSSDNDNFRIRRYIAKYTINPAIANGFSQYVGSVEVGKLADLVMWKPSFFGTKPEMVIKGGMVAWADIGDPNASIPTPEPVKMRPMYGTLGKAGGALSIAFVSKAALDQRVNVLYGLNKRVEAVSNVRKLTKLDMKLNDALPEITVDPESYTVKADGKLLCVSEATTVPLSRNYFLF

By melting point is commonly meant the temperature of the solid-liquid transition. One may read the IC50 as the concentration at which inhibition is half-maximal. In turn, `CC(C)c1ccc(NC(=O)COC(=O)c2cccc(Br)c2)cc1` [4e, 2-((4-Isopropylphenyl)amino)-2-oxoethyl 3-Bromobenzoate] yielded a melting point of 91 to 92 °C. Further, on jack bean urease [1], the IC50 came out at 62.7 ± 2.1 nM.
As for “2-((5-Isopropyl-2-methyl phenyl) Amino)-2-oxoethyl 3-Bromobenzoate [4j]”, the IC50 on jack bean urease [1] (setting [4]) was determined as 2.1 ± 0.1 nM. The “times more active than derivative 4k” value on jack bean urease [1] (ratio of urease inhibitory activity, 4j versus 4k) is given as 25.
In the case of `Cc1ccc(C(C)C)cc1NC(=O)COC(=O)c1ccccc1Cl` [4g, 2-((5-Isopropyl-2-methylphenyl) Amino)-2-oxoethyl 2-Chloro Benzoate], the melting point lay within 115 to 116 °C. The IC50 against jack bean urease [1] came to 3.8 ± 0.2 nM.
With “2-((5-Isopropyl-2-methyl phenyl) Amino)-2-oxoethyl 3,4-Dichlorobenzoate [4k]”, the IC50 on jack bean urease [1] (setting [4]) amounted to 50.1 ± 1.7 nM.
“2-((5-Isopropyl-2-methyl phenyl) Amino)-2-oxoethyl 2-Bromobenzoate [4i]”: the IC50 on jack bean urease [1] (setting [4]) was 21.1 ± 0.7 nM.
`CC(C)c1ccc(NC(=O)COC(=O)c2ccccc2I)cc1` [4f, 2-((4-Isopropylphenyl)amino)-2-oxoethyl 2-Iodobenzoate] had a melting point of 91 to 92 °C. On jack bean urease [1], the IC50 is 31.2 ± 1.1 nM.
For `CC(C)c1ccc(NC(=O)COC(=O)c2ccc(Cl)c(Cl)c2)cc1` [4c, 2-((4-Isopropylphenyl)amino)-2-oxoethyl 3,4-Dichlorobenzoate], in that order: 107 to 108 °C and 18.2 ± 0.6 nM.
Take `NC(N)=S` [Thiourea, thiourea, reference compound]: at jack bean urease [1] (setting [4]), the IC50 amounted to 472 ± 135 nM.
In the case of `Cc1ccc(C(C)C)cc1NC(=O)COC(=O)c1ccccc1I` [4l, 2-((5-Isopropyl-2-methylphenyl) Amino)-2-oxoethyl 2-Iodobenzoate], the IC50 against jack bean urease [1] was determined as 11.5 ± 3.9 nM.
In turn, `CC(C)c1ccc(NC(=O)COC(=O)c2ccccc2Br)cc1` [4d, 2-((4-Isopropylphenyl)amino)-2-oxoethyl 2-Bromobenzoate] returned a melting point of 89 to 90 °C. This compound also had an IC50 against jack bean urease [1] of 3.8 ± 0.2 nM.
In general, Ki refers to a measure of affinity in units of concentration, obtained from inhibition or displacement. `CC(C)c1ccc(NC(=O)COC(=O)c2cccc(Cl)c2)cc1` [4b, 2-((4-Isopropylphenyl)amino)-2-oxoethyl 3-Chlorobenzoate] showed a melting point of 96 to 98 °C. On jack bean urease [1], this compound yielded an IC50 of 1.6 ± 0.2 nM. On jack bean urease [2], this compound came in with a Ki of 0.7 nM. Further, the Inhibition type entry at jack bean urease [2] (Lineweaver-Burk plots) was “mixed type of inhibitor; also recorded: mixed type of inhibition”. In addition, the “Ki′ (ESI dissociation constant)” value on jack bean urease [2] (from Lineweaver-Burk plots) was found to be 1.8 nM. On jack bean urease [2] (inhibitor dose 0.0016 μM, substrate urea), this compound displayed a 1/Vmax of 0.00088.
As to `CC(C)c1ccc(NC(=O)COC(=O)c2ccccc2Cl)cc1` [4a, 2-((4-Isopropylphenyl)amino)-2-oxoethyl 2-Chlorobenzoate], the melting point lay within 94 to 96 °C. The compound further came in with an IC50 on jack bean urease [1] of 57.1 ± 1.9 nM.
On to `Cc1ccc(C(=O)NC(=S)Nc2coc(=O)c3ccccc23)cc1` [compound 2], for which the half-inhibitory concentration (IC50) at jack bean urease [3] is 6.5 nM.
